This test deals with ML resistant Cooperia strains. The note with it: doses ¼ to ⅓rd lower than the standard label dose (7.5 mg/kg).

Procedure: Individual faecal samples (for individual egg count and group larval culture) were collected as per protocol at 7 days intervals at Days 7, 14, 21, 28, 35, 42 and 49. […] Weighing was performed at the beginning, middle, and end of 49 day trial.

As to `c1ccc([C@H]2CN3CCSC3=N2)cc1` [levamisole], the “Control of ML resistant Cooperia strains” value was 100%.
